PubChem BioAssay AID1996
In brackets after ≈: the same amount, converted by molar mass.

Details: buffer; pH 7.4; 200.0 µM

SMILES	solubility kinetic
COc1ccc(C(=O)NCc2ccc3c(c2)cc(C)n3C)cc1OC	4.7 µg/mL (≈ 13.9 µM)
C[C@H](NC(=O)c1ccco1)C(=O)N1CCCC1	> 35.4 µg/mL
NC(=O)c1c(NC(=O)c2ccccc2)sc2c1CCCC2	0.8 µg/mL (≈ 2.66 µM)
O=S(=O)(Cc1ccccc1)N1CCN(c2ncccn2)CC1	2.3 µg/mL (≈ 7.22 µM)
Cc1cccc(C)c1Nc1ncnc2ccccc12.Cl	> 42.9 µg/mL
COc1ccc(-n2c(=S)[nH]c3sc4c(c3c2=O)CCN(C)C4)cc1	> 53.9 µg/mL
CC(=O)Cn1c(CN2CCCCC2)nc2ccccc2c1=O	> 44.9 µg/mL
CCc1ccc(OS(=O)(=O)c2cn(C)c(=O)n(C)c2=O)cc1	> 48.7 µg/mL
O=C1OCCC1Sc1nnc(-c2ccc3c(c2)OCO3)o1 (stereo not given)	> 45.9 µg/mL
CCN1C(=O)c2ccc(C(=O)Nc3ncc(C)s3)cc2C1=O	5.8 µg/mL (≈ 18.4 µM)
Cc1cc([N+](=O)[O-])nn1CC(=O)NCCCN1CCOCC1	> 46.7 µg/mL
CCN(Cc1ccccc1)C(=O)c1cc2cc(OC)c(OC)cc2[nH]1	< 0.4 µg/mL
Cc1cc(NC(=O)c2cc(-c3ccc(O)cc3)on2)no1	0.5 µg/mL (≈ 1.75 µM)
CCOC(=O)C1=C(N)OC2=C(C(=O)CCC2)C12C(=O)N(C)c1ccccc12 (stereo not given)	29.1 µg/mL (≈ 79 µM)
Cc1ccc(-c2csc(NC(=O)c3c(C)noc3C)n2)cc1C	1.7 µg/mL (≈ 5.19 µM)
N#Cc1cccc(NC(=O)CCc2ccc(S(=O)(=O)N3CCOCC3)cc2)c1	48 µg/mL (≈ 120 µM)
O=S(=O)(/C=C/c1cccc(Br)c1)N1CCOCC1	40 µg/mL (≈ 120 µM)
CCN(CC)CCOC(=O)C(c1ccccc1)C1CCCCC1.Cl (stereo not given)	> 53.1 µg/mL
O=C(CC12CC3CC(CC(C3)C1)C2)Nc1ccc(C(=O)O)cc1	> 47 µg/mL
CC(=O)c1c(C)[nH]c(C(=O)Nc2cccc(C)c2C)c1C	2 µg/mL (≈ 7.03 µM)

SMILES	solubility kinetic
O=C(NCc1ccncc1)C(=O)Nc1ccc2c(c1)OCO2	9.5 µg/mL (≈ 31.7 µM)
CC(C)NC(=O)c1cc(-c2cccs2)nc2ccccc12	4.6 µg/mL (≈ 15.5 µM)
Cc1ccc(NC(=O)c2cncc(Br)c2)nc1	28.1 µg/mL (≈ 96.2 µM)
CC(NC(=O)CC1CCCCC1)c1ccccc1 (stereo not given)	> 36.8 µg/mL
O=C(CSc1ccccc1)NCCc1ccccc1	39.4 µg/mL (≈ 145 µM)
C=CCN(c1ccccc1)S(=O)(=O)c1cccc2cccnc12	34.9 µg/mL (≈ 108 µM)
COc1ccc(NC(=O)CCCn2cnc3ccccc3c2=O)cc1	> 50.6 µg/mL
CCCCC(Sc1nc(C)c(Cc2ccccc2)c(=O)[nH]1)C(=O)O (stereo not given)	> 52 µg/mL
Cc1nccn1CC(=O)N/N=C/c1ccccc1O	> 38.7 µg/mL
O=S(=O)(Nc1ccc2ccccc2n1)c1ccc2c(c1)CCO2	45.9 µg/mL (≈ 141 µM)
NNC(=O)CCN1CCN(Cc2ccccc2)CC1	> 39.4 µg/mL
CC(=O)N(CCS(=O)(=O)c1ccc(Cl)cc1)Cc1cccs1	39.9 µg/mL (≈ 111 µM)
O=C(COC(=O)Cc1ccsc1)Nc1cccc(Cl)c1	> 46.5 µg/mL
CNC(=O)NC(=O)Cn1cnc2sc(-c3ccccc3)cc2c1=O	0.4 µg/mL (≈ 1.17 µM)
CCCCCCNc1c([N+](=O)[O-])c(=O)sc2ccccc12	4.4 µg/mL (≈ 14.4 µM)
Cc1nc(/C(=N/O)C(N)=O)cs1	> 27.8 µg/mL
COc1ccccc1C1CCN(Cc2ccc(Cl)c(Cl)c2)CC1	< 0.8 µg/mL
CC(=O)NC(CSc1cc(C)nc2ccc(Br)cc12)C(=O)O (stereo not given)	57.2 µg/mL (≈ 149 µM)
CCOC(=O)CC(NC(=O)c1ccc(C)cc1)c1ccc(OC)cc1 (stereo not given)	8.5 µg/mL (≈ 24.9 µM)
COc1ccc(C(=O)Nc2ccc(CN3CCOCC3)cc2)cc1Br	14.1 µg/mL (≈ 34.8 µM)

SMILES	solubility kinetic
O=C(/C=C/c1ccco1)Nc1ccc2nc3n(c(=O)c2c1)CCCC3	3.7 µg/mL (≈ 11 µM)
CC(NC(=O)c1ccc(Br)o1)c1ccc(-n2ccnc2)cc1 (stereo not given)	> 54 µg/mL
Cc1c(Cl)cccc1NC(=S)NCc1ccco1	40.1 µg/mL (≈ 143 µM)
O=C(NCc1ccccn1)Nc1ccc(Cl)cc1	34 µg/mL (≈ 130 µM)
COc1ccc(CCNC(=O)C2CC(O)CN2S(=O)(=O)c2ccc(Cl)cc2)cc1OC (stereo not given)	> 70.3 µg/mL
COc1ccc(C(=O)NCC(=O)c2ccccc2)cc1	> 40.4 µg/mL
CCc1nc2ccccc2n1CC1CC1(Cl)Cl (stereo not given)	34.9 µg/mL (≈ 130 µM)
O=C(CSc1ncccn1)N1CCCCCC1	> 37.7 µg/mL
Cc1ccccc1OCC(=O)NCCNC(=O)c1ccncc1	> 47 µg/mL
CCOc1ccc(N(C(C)C(=O)N2CCCC2)S(C)(=O)=O)cc1 (stereo not given)	> 51.1 µg/mL
CC(C)C(=O)Nc1cc(-c2nc3ncccc3o2)ccc1Cl	6 µg/mL (≈ 19 µM)
O=C(Oc1cccc(OC(=O)N2CCCCC2)c1)N1CCCCC1	20.8 µg/mL (≈ 62.6 µM)
O=C(c1cccc(S(=O)(=O)NCc2ccccc2)c1)N1CCCC1	> 51.7 µg/mL
CC(C)(C)c1ccc(C(=O)n2cnc3ccccc32)cc1	34.1 µg/mL (≈ 123 µM)
CC(=O)NS(=O)(=O)c1ccc(NC(=O)c2ccc3c(c2)NC(=O)CS3)cc1	> 60.8 µg/mL
CCOC(=O)CSc1nc2cc(C(F)(F)F)cnc2n1C	44.9 µg/mL (≈ 141 µM)
CN(Cc1nc(-c2cccs2)no1)CC1(N2CCOCC2)CCCCC1	38.7 µg/mL (≈ 103 µM)
Cc1cc(C(=O)OCC(=O)Nc2ccccc2)c(C)o1	20 µg/mL (≈ 73.2 µM)
COc1cc(SC)ccc1C(=O)N(Cc1ccccc1)c1ccccn1	> 54.7 µg/mL
COC(=O)CN1C(=O)N/C(=C/c2ccc(OC)cc2)C1=O	17.4 µg/mL (≈ 59.9 µM)
